Earlier results as cited in patent US20100183726A1, “COMPOSITIONS AND METHODS FOR TREATING CANCER WITH DACARBAZINE NANOEMULSIONS” (priority 2006, published 2010).
Where two headings read alike, the source gives them in different places. Values belong to the molecule of their own block, whether it stands above or below them.

Columns and labels:
[1] = test system: metastatic melanoma
[2] = test system: melanoma B16 cells
[3] = test system: melanoma B16F10 cells; details: 150 mg/kg; 14 days after inoculation; p<0.01 versus untreated controls
[4] = test system: B16 cells; details: 200 μg/ml
[5] = test system: Cloudman S91 cells; details: 100 μg/ml
[6] = not given; remark: listed apart in the source
[7] = dacarbazine alone, meta-analysis of 14 studies, 1167 patients

- time to maximal serum concentration (after injection of dacarbazine): 15 min
- time at which detectable after intravenous injection of dacarbazine (in vivo, iv): 15 min
SMILES: NC(=O)c1nc[nH]c1N [AIC, 5-aminoimidazol-me-4-carboxamide]

SMILES: CN(C)N=Nc1[nH]cnc1C(N)=O [dacarbazine, 5-(3,3-dimethyl-1-triazeno)imidazole-4-carboxamide]
- complete remission ([1]; 143 patients treated with dacarbazine alone): 5%
- average response rates ([1]; contemporary trials): < 10%
- median progression-free survival ([1]; contemporary trials): ≤ 2 months
- average mean survival [1, 7]: 8 months
- average response rate [1, 7]: 18.7%
- complete remission average rate [1, 7]: 5.4%
- increased survival time ([2]; B16 cells implanted intraperitoneally): 29%
- increased survival time ([2]; B16 cells implanted subcutaneously): 43%
- inhibition of tumor growth ([2]; intraperitoneal injection): did not inhibit tumor growth
- number of metastatic pulmonary nodules [3]: significantly decreased
- highest induction of apoptosis [4]: 11%
- highest induction of apoptosis [5]: 22.2%
- patients developing constitutional symptoms (nausea, vomiting, occasionally diarrhea) ([6]; in vivo): 90%
- cytopenia grade ([6]; white cell and platelet counts after injection): WHO grade 1 or rarely grade 2
- T50% α value relative to typical dose (higher doses (850-1980 mg/m^2)): 3.5 fold
- injected dose crossing the blood-brain barrier (in vivo): 13%
- protein binding (in vivo): binds weakly to proteins
- secretion in breast milk (in vivo): secreted in breast milk
- volume of distribution (in vivo): exceeds the water volume of the body
- bioavailable fraction (intravenously injected): 50-60%
- fraction of an oral dose absorbed (oral administration): 14-23%
- renal clearance (regardless of the dose injected): exceeds creatinine clearance
